{
  "source": "ChEMBL document CHEMBL4359923",
  "about": "“One-step Heck Reaction Generates Nonimmunosuppressive FK506 Analogs for Pharmacological BMP Activation” (ACS Med Chem Lett, 2019)",
  "key": {"[1]": {"biological_target": "T1, Peptidyl-prolyl cis-trans isomerase FKBP1A (Homo sapiens, UniProt P62942)", "T1 sequence (P62942 whole entry)": "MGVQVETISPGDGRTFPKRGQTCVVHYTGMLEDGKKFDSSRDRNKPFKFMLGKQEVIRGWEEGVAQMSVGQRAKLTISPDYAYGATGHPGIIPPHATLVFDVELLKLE", "assay": "Activation of FKBP12-mediated BMP signaling pathway in human Jurkat cells transfected with BRE-Luc at 1 nM to 1 uM measured after 18 hrs by luciferase reporter assay", "format": "cell-based"}, "[2]": {"biological_target": "T1, Peptidyl-prolyl cis-trans isomerase FKBP1A", "assay": "Inhibition of FKBP12-mediated calcineurin activation in PMA/ionomycin stimulated human Jurkat cells transfected with NFAT-Luc assessed as NFAT reporter activity up to 10 uM pretreated for 30 mins prior to PMA/ionomycin activation measured after 6 hrs by luciferase reporter assay", "format": "cell-based"}, "[3]": {"biological_target": "T1, Peptidyl-prolyl cis-trans isomerase FKBP1A", "assay": "Induction of FKBP12-mediated SMAD1/5 phosphorylation in human Jurkat cells measured after 2 hrs by Western blot analysis", "format": "cell-based"}, "[4]": {"tested_on": "HUVEC", "assay": "Cytotoxicity against human HUVEC cells assessed as inhibition of cell growth at 1 to 10 uM measured after 72 hrs by resazurin dye based assay"}, "[5]": {"tested_on": "HUVEC", "assay": "Cytotoxicity against human HUVEC cells assessed as inhibition of cell growth at 10 uM measured after 72 hrs by resazurin dye based assay"}, "[6]": {"biological_target": "T1, Peptidyl-prolyl cis-trans isomerase FKBP1A", "assay": "Inhibition of FKBP12-mediated calcineurin activation in PMA/ionomycin stimulated human Jurkat cells transfected with NFAT-Luc assessed as reduction in NFAT reporter activity at 1 uM pretreated for 30 mins prior to PMA/ionomycin activation measured after 6 hrs by luciferase reporter assay", "format": "cell-based"}},
  "note": "The source made the active and inactive calls. The calls are words filed in the database; no cut-off is given here.",
  "data": [
    {"smiles": "CO[C@H]1C[C@@H](C)C/C(C)=C/[C@@H](C/C=C/c2ccncc2N)C(=O)C[C@H](O)[C@@H](C)[C@@H](/C(C)=C/[C@@H]2CC[C@@H](O)[C@H](OC)C2)OC(=O)[C@@H]2CCCCN2C(=O)C(=O)[C@]2(O)O[C@H]1[C@@H](OC)C[C@H]2C", "values": [
      {"measurement": "Activity", "setting": "[1]", "result": "Active"},
      {"measurement": "inhibition (INH)", "setting": "[2]", "result": "Not Active"},
      {"measurement": "Activity", "setting": "[3]", "result": "Dose-dependent effect"},
      {"measurement": "Activity", "setting": "[4]", "result": "Toxic"}
    ]},
    {"smiles": "CO[C@H]1C[C@@H](C)C/C(C)=C/[C@@H](C/C=C/c2ccnc3ccccc23)C(=O)C[C@H](O)[C@@H](C)[C@@H](/C(C)=C/[C@@H]2CC[C@@H](O)[C@H](OC)C2)OC(=O)[C@@H]2CCCCN2C(=O)C(=O)[C@]2(O)O[C@H]1[C@@H](OC)C[C@H]2C", "values": [
      {"measurement": "Activity", "setting": "[5]", "result": "Toxic"},
      {"measurement": "Activity", "setting": "[1]", "result": "Active"},
      {"measurement": "inhibition (INH)", "setting": "[6]", "result": "Active"}
    ]},
    {"smiles": "CO[C@H]1C[C@@H](C)C/C(C)=C/[C@@H](C/C=C/c2ccccc2N)C(=O)C[C@H](O)[C@@H](C)[C@@H](/C(C)=C/[C@@H]2CC[C@@H](O)[C@H](OC)C2)OC(=O)[C@@H]2CCCCN2C(=O)C(=O)[C@]2(O)O[C@H]1[C@@H](OC)C[C@H]2C", "values": [
      {"measurement": "Activity", "setting": "[1]", "result": "Active"},
      {"measurement": "inhibition (INH)", "setting": "[6]", "result": "Active"},
      {"measurement": "Activity", "setting": "[4]", "result": "Toxic"}
    ]},
    {"smiles": "CO[C@H]1C[C@@H](C)C/C(C)=C/[C@@H](C/C=C/c2ccncc2F)C(=O)C[C@H](O)[C@@H](C)[C@@H](/C(C)=C/[C@@H]2CC[C@@H](O)[C@H](OC)C2)OC(=O)[C@@H]2CCCCN2C(=O)C(=O)[C@]2(O)O[C@H]1[C@@H](OC)C[C@H]2C", "values": [
      {"measurement": "Activity", "setting": "[1]", "result": "Active"},
      {"measurement": "inhibition (INH)", "setting": "[6]", "result": "Active"},
      {"measurement": "Activity", "setting": "[4]", "result": "Toxic"}
    ]},
    {"smiles": "C=CC[C@@H]1/C=C(\\C)C[C@H](C)C[C@H](OC)[C@H]2O[C@@](O)(C(=O)C(=O)N3CCCC[C@H]3C(=O)O[C@H](/C(C)=C/[C@@H]3CC[C@@H](O)[C@H](OC)C3)[C@H](C)[C@@H](O)CC1=O)[C@H](C)C[C@@H]2OC", "note": "[TACROLIMUS ANHYDROUS]", "values": [
      {"measurement": "Activity", "setting": "[1]", "result": "Active"},
      {"measurement": "inhibition (INH)", "setting": "[6]", "result": "Active"},
      {"measurement": "Activity", "setting": "[3]", "result": "Dose-dependent effect"},
      {"measurement": "Activity", "setting": "[4]", "result": "Toxic"}
    ]},
    {"smiles": "CO[C@H]1C[C@@H](C)C/C(C)=C/[C@@H](C/C=C/c2cccc(N)c2)C(=O)C[C@H](O)[C@@H](C)[C@@H](/C(C)=C/[C@@H]2CC[C@@H](O)[C@H](OC)C2)OC(=O)[C@@H]2CCCCN2C(=O)C(=O)[C@]2(O)O[C@H]1[C@@H](OC)C[C@H]2C", "values": [
      {"measurement": "Activity", "setting": "[1]", "result": "Active"},
      {"measurement": "inhibition (INH)", "setting": "[6]", "result": "Active"},
      {"measurement": "Activity", "setting": "[4]", "result": "Toxic"}
    ]},
    {"smiles": "CO[C@H]1C[C@@H](C)C/C(C)=C/[C@@H](C/C=C/c2ccnc3cc(F)ccc23)C(=O)C[C@H](O)[C@@H](C)[C@@H](/C(C)=C/[C@@H]2CC[C@@H](O)[C@H](OC)C2)OC(=O)[C@@H]2CCCCN2C(=O)C(=O)[C@]2(O)O[C@H]1[C@@H](OC)C[C@H]2C", "values": [
      {"measurement": "Activity", "setting": "[5]", "result": "Toxic"},
      {"measurement": "Activity", "setting": "[1]", "result": "Active"},
      {"measurement": "inhibition (INH)", "setting": "[6]", "result": "Active"}
    ]},
    {"smiles": "CNc1ccc(/C=C/C[C@@H]2/C=C(\\C)C[C@H](C)C[C@H](OC)[C@H]3O[C@@](O)(C(=O)C(=O)N4CCCC[C@H]4C(=O)O[C@H](/C(C)=C/[C@@H]4CC[C@@H](O)[C@H](OC)C4)[C@H](C)[C@@H](O)CC2=O)[C@H](C)C[C@@H]3OC)cc1", "values": [
      {"measurement": "Activity", "setting": "[1]", "result": "Active"},
      {"measurement": "inhibition (INH)", "setting": "[6]", "result": "Active"},
      {"measurement": "Activity", "setting": "[4]", "result": "Toxic"}
    ]},
    {"smiles": "CO[C@H]1C[C@@H](C)C/C(C)=C/[C@@H](C/C=C/c2ccc(N)cc2)C(=O)C[C@H](O)[C@@H](C)[C@@H](/C(C)=C/[C@@H]2CC[C@@H](O)[C@H](OC)C2)OC(=O)[C@@H]2CCCCN2C(=O)C(=O)[C@]2(O)O[C@H]1[C@@H](OC)C[C@H]2C", "values": [
      {"measurement": "Activity", "setting": "[1]", "result": "Active"},
      {"measurement": "inhibition (INH)", "setting": "[6]", "result": "Active"},
      {"measurement": "Activity", "setting": "[4]", "result": "Toxic"}
    ]},
    {"smiles": "CO[C@H]1C[C@@H](C)C/C(C)=C/[C@@H](C/C=C/c2ccnc(N)c2)C(=O)C[C@H](O)[C@@H](C)[C@@H](/C(C)=C/[C@@H]2CC[C@@H](O)[C@H](OC)C2)OC(=O)[C@@H]2CCCCN2C(=O)C(=O)[C@]2(O)O[C@H]1[C@@H](OC)C[C@H]2C", "values": [
      {"measurement": "Activity", "setting": "[1]", "result": "Active"},
      {"measurement": "inhibition (INH)", "setting": "[2]", "result": "Not Active"},
      {"measurement": "Activity", "setting": "[3]", "result": "Dose-dependent effect"},
      {"measurement": "Activity", "setting": "[4]", "result": "Toxic"}
    ]},
    {"smiles": "CO[C@H]1C[C@@H](C)C/C(C)=C/[C@@H](C/C=C/c2ccncc2)C(=O)C[C@H](O)[C@@H](C)[C@@H](/C(C)=C/[C@@H]2CC[C@@H](O)[C@H](OC)C2)OC(=O)[C@@H]2CCCCN2C(=O)C(=O)[C@]2(O)O[C@H]1[C@@H](OC)C[C@H]2C", "values": [
      {"measurement": "Activity", "setting": "[1]", "result": "Active"},
      {"measurement": "inhibition (INH)", "setting": "[2]", "result": "Not Active"},
      {"measurement": "Activity", "setting": "[3]", "result": "Dose-dependent effect"},
      {"measurement": "Activity", "setting": "[4]", "result": "Toxic"}
    ]},
    {"smiles": "CO[C@H]1C[C@@H](C)C/C(C)=C/[C@@H](C/C=C/c2ccnc3c(F)c(F)ccc23)C(=O)C[C@H](O)[C@@H](C)[C@@H](/C(C)=C/[C@@H]2CC[C@@H](O)[C@H](OC)C2)OC(=O)[C@@H]2CCCCN2C(=O)C(=O)[C@]2(O)O[C@H]1[C@@H](OC)C[C@H]2C", "values": [
      {"measurement": "Activity", "setting": "[5]", "result": "Toxic"},
      {"measurement": "Activity", "setting": "[1]", "result": "Active"},
      {"measurement": "inhibition (INH)", "setting": "[6]", "result": "Active"}
    ]}
  ]
}
